Experimental data from ChEMBL document CHEMBL1156829 (Proc Natl Acad Sci U S A, 2008).

What was measured:
[1] = system: Plasmodium falciparum; assay: NOVARTIS: Inhibition of Plasmodium falciparum W2 (drug-resistant) proliferation in erythrocyte-based infection assay; format: functional, organism-based; details: Plasmodium falciparum, W2; read-out: EC50
[2] = system: Plasmodium falciparum; assay: NOVARTIS: Inhibition of Plasmodium falciparum 3D7 (drug-susceptible) proliferation in erythrocyte-based infection assay; format: functional, organism-based; details: Plasmodium falciparum, 3D7
[3] = NOVARTIS: Cytotoxicity against human hepatocellular carcinoma cell line (Huh7); format: toxicity, cell-based, Huh-7; details: Huh7 cells (hepatocellular carcinoma cell line)

Structure (SMILES)	EC50 [1] [nM]	EC50 [2] [nM]	CC50 [3] [nM]
O=C(NN=CC(Br)=Cc1ccccc1)c1ccc(F)cc1	618	981	> 10000
CN(C)c1ccc(/C=C2\SC(=Nc3ccc(O)cc3)NC2=O)cc1	526	1140	8590
COc1ccc2nc(C)cc(Nc3ccc(Oc4ccc(Cl)cc4)c(Cl)c3)c2c1	571	171	9340
COc1ccc(C2c3cccn3-c3ccccc3N2C(=O)CN(C(=O)Nc2ccc(C(F)(F)F)cc2)C2CC2)cc1 (stereo not given)	6200	7510	> 100000
CCOC(=O)C1(CC)CC(C)(C(=O)C[n+]2cccc(Br)c2)OC1=O (stereo not given)	628	410	> 10000
CC1CCN(C(=O)C2CCCN(S(=O)(=O)c3ccc4[nH]c(-c5ccccc5)nc4c3)C2)CC1 (stereo not given)	6030	> 12500	> 100000
COc1ccc(C(=O)C(C)[n+]2ccccc2-c2ccccn2)cc1 (stereo not given)	> 751	602	> 12100
Cc1ccc(C(=O)NCCN2CCCCC2)cn1	621	> 1310	> 10000
COc1cccc(CC2(CO)CCCN(Cc3sc(N4CCCC4)nc3Cl)C2)c1 (stereo not given)	> 6210	> 12500	> 100000
COc1ccccc1C(=O)NN=C(C)c1cccnc1	> 602	> 1250	> 10000
CSC1=NC(C)(C)CC2(CC(c3ccc(C)cc3)c3cc(Cl)c(O)cc3O2)N1 (stereo not given)	602	993	> 10000
Cc1nc(-c2ccccc2)nc(C(=O)N2CCN(C(=O)/C=C/c3ccccc3)C(C)C2)c1C(=O)OC(C)C (stereo not given)	621	> 1250	> 10000
COCCNc1cc(-c2ccccn2)nc(-c2ccccn2)n1	624	440	> 10000
CCN(CC)[P+](N(C)C[Si](C)(C)C)(N(CC)CC)N(CC)CC	523	154	8410
CCN(CC)CCN(Cc1cc2ccc(C)cc2[nH]c1=O)C(=S)NC(C)c1ccccc1 (stereo not given)	1340	1690	21500
CC(C)CC(NC(=O)/C(=C\c1ccco1)NC(=O)c1ccccc1)C(=O)OCc1ccccc1 (stereo not given)	> 625	> 1250	> 10000
CCCCN(CC(=O)N1c2ccccc2-n2cccc2C1c1ccc(OC)cc1)C(=O)Nc1cccc(F)c1 (stereo not given)	6250	8600	> 100000
Cc1oc2c(c1C(=O)N1CCN(C)CC1)C(=O)c1ccccc1C2=O	335	829	5460
CCN(CC)CCCN(Cc1cc2cc(OC)ccc2[nH]c1=O)C(=S)Nc1ccc(C)cc1	2020	3410	33000
CC(C)CNC(=O)c1cnc(NCCCn2ccnc2)nc1NCCc1ccccc1	610	600	> 10000
COc1ccc([N+](=O)[O-])cc1-c1ccc(/C=C(\C#N)c2nn(CCO)c(N)c2C#N)o1	607	880	> 10000
COc1ccc(C2=NN(C(=O)CCC(=O)O)C(c3ccccc3F)C2)cc1 (stereo not given)	606	> 1250	> 10000
CCC(C(=O)Nc1sccc1C#N)c1ccccc1 (stereo not given)	> 612	> 971	> 10000
CCCCCC(=O)N(CCN(C)C)C(CC)c1nc2ccccc2c(=O)n1-c1ccc(F)cc1 (stereo not given)	> 628	> 1250	> 10000
COc1ccc2[nH]cc(CCNC(=O)Oc3ccccc3)c2c1	604	> 1290	> 10000

Structure (SMILES)	EC50 [1] [nM]	EC50 [2] [nM]	CC50 [3] [nM]
CCOc1ccc2nc(C)cc(Nc3ccc(OCc4ccccc4Cl)cc3)c2c1	357	142	5840
O=C(NCc1ccco1)C1CCCN(c2cccc3c2C(=O)N(CCc2cccc(F)c2)C3=O)C1 (stereo not given)	> 611	> 1400	> 10000
COc1cc(NC(C)CCCN(Cc2ccccc2OC)C(=O)Nc2ccccc2OC)c2ncccc2c1 (stereo not given)	614	847	> 10000
CC(C)COc1ccc(C(=O)N/C(=C/c2ccccc2)C(N)=O)cc1	> 617	> 1250	> 10000
CCOC(=O)c1cnc2c(C)cc(Cl)cc2c1Nc1ccc(OC)c(OC)c1	> 726	> 1250	> 11800
COc1cc(NC2=CC(=O)C(=O)c3ccccc32)c(OC)cc1Cl	687	294	11200
CCCC1=[N+](CC(=O)c2ccc(C)cc2)CCn2c(C)ccc21	> 618	792	> 10000
O=C(NCCC(c1ccccc1)c1ccccc1)c1cccc([N+](=O)[O-])c1	618	302	> 10000
CC(C)(C)c1ccc(CNC(=O)C(Cc2ccc(O)cc2)c2ccccc2)cc1 (stereo not given)	3270	> 8680	53200
O=C1N(Cc2cc3ccccc3s2)CC2CN(Cc3ccoc3)CCN12 (stereo not given)	619	1080	> 10000
COc1ccc(CN(C=O)/C=C2\Sc3ccccc3C2=O)cc1OC	617	> 1250	> 10000
COc1ccc(CC(=O)N(CCCC(C)Nc2cc(OC)cc3cccnc23)Cc2ccc(OC)c(OC)c2)cc1 (stereo not given)	666	1200	> 10800
N#Cc1cc(Oc2ccc(-c3cnc4ccccc4n3)cc2)nc2ccccc12	6150	> 12500	> 100000
O=C(c1ccccc1)N1CCN(CC(O)COCc2ccccc2)CC1 (stereo not given)	618	> 1250	> 10000
CC(C)c1ccc(/C=C/C(=O)NCc2ccco2)cc1	628	890	> 10000
CCCCCCN(C(=O)c1ccc(Cl)cc1)C(CC)c1nc2ccccc2c(=O)n1-c1ccccc1OC (stereo not given)	607	952	> 10000
CN(C)C(=O)NCCCCNc1ccnc2cc(Cl)ccc12	609	992	> 10000
CC1CCN(c2nncc3ccccc23)CC1	> 6050	> 12500	> 100000
O=[N+]([O-])c1ccc(-c2nc3ccccc3n2-c2cc(-c3ccccc3)nn2-c2ccccc2)cc1	> 611	> 1620	> 10000
CCC(=O)OC(C(C)C(=O)O)C(C)C1OC2(CCC(C)(C3CCC(C)(C4OC(C5OC(O)(CO)C(C)CC5C)CC4C)O3)O2)CC(O)C1C (stereo not given)	387	379	> 6250
COc1cc(OC)cc(N2C(=O)N(Cc3ccc(C(C)(C)C)cc3)c3ccccc3S2(=O)=O)c1	6300	3750	> 100000
O=C(NCSC1=NCCS1)c1ccccc1	> 6030	> 12500	> 100000
Cc1c(C(=O)N2CCC3(CCN(C)C3)C2)cnn1-c1ncc2c(n1)-c1ccccc1SC2 (stereo not given)	603	1560	> 10000
OCCN1CCN(c2cc(-c3cccnc3)nc(-c3ccncc3)n2)CC1	626	945	> 10000
CN(C)c1ccc(C(=Cc2cc(-c3ccccc3)cc(-c3ccccc3)[o+]2)c2ccc(N(C)C)cc2)cc1	898	1990	14400
